Experimental data as given in patent US9546196B2, “Compositions and methods of treatment of cancers” (The University of Toledo, priority 2009, dated 2017).
Ends that are not written are not given here. Peptide text beside a SMILES is read from it. * marks the point of attachment. Cbz = O=C(OCc1ccccc1)*; CH2F = FC*

The molecules below were run on MDM2 (assay: Western blotting of MDM2 in LNCaP nuclear and cytosolic extracts). Conditions: LNCaP cells.
Assay type: cell-based
Protocol: FIG. 4B: Nuclear (N) and cytosolic (C) extracts were prepared from LNCaP cells and Western blotting was used to measure protein levels of MDM2, p53, JAB1, and sGCα1. β-actin was used as loading control.
LNCaP cells were infected with an sGCα1-expressing adenovirus or control empty virus and p53 subcellular localization was measured by Western blotting following cell fractionation.
For `CC(C)C[C@@H](C=O)NC(=O)[C@H](CC(C)C)NC(=O)[C@H](CC(C)C)NC(=O)OCc1ccccc1` [MG132] (Cbz-Leu-Leu-Leu-aldehyde), the MDM2 cytoplasmic levels was “significantly enhanced”.

What follows are molecules tested on LNCaP cells (assay: not given). Conditions: increasing concentration of peptide, days; with or without 1 nM R1881.
Assay type: cell-based
Protocol: FIG. 12B: LNCaP cells were grown without androgen for 2 or 4 days in the presence of increasing concentration of Peptide A-8R [SEQ ID NO: 1] (upper left), Peptide B-8R [SEQ ID NO: 2] (upper right), Peptide C-8R [SEQ ID NO: 3] (lower left), or Peptide D-8R [SEQ ID NO: 4] (lower right). The MTT reagent was used to measure cell density.
FIG. 13A: LNCaP cells were grown with (Right) or without (Left) 1 nM androgen ([…]) for 3 or 6 days in the presence of increasing concentration of Peptide A-8R [SEQ ID NO: 1] or vehicle (70% DMSO). The MTT reagent was used to measure cell density.
FIG. 13B: LNCaP cells were grown with (Right) or without (Left) 1 nM androgen (R1881) for 3 or 6 days in the presence of increasing concentration of Peptide C-8R [SEQ ID NO: 3] or vehicle and then cell density was measured.
FIG. 14A: LNCaP cells were grown with (Right) or without (Left) 1 nM R1881 for 3 or 6 days in the presence of increasing concentration of Peptide A or vehicle and then cell density was measured.
FIG. 14B: LNCaP cells were grown with (Right) or without (Left) 1 nM R1881 for 3 or 6 days in the presence of increasing concentration of Peptide A-8R [SEQ ID NO: 1] or vehicle and then cell density was measured.
FIG. 15A: LNCaP cells were grown for 1-8 hrs in the presence of 10 μM Peptide A-8R [SEQ ID NO: 1] or vehicle and then cell density was measured.
FIG. 19C: LNCaP cells were grown with for 12 or 48 hrs in the presence of increasing concentration of Peptide A-8R [SEQ ID NO: 1] (Left) or PeptideA-8R-Biotin [SEQ ID NO: 1] (Right) and then cell density was measured.
Each peptide contained 8 arginines at the C-terminus, a sequence which is known to mediate plasma membrane translocation and cellular internalization.
To measure how rapid the cytotoxic effect of Peptide A-8R [SEQ ID NO: 1] occurs, LNCaP cells were treated with 10 μM peptide and incubated for 1-8 hrs. […] Using the same conditions, C81 cells were used to study the peptide effect on hormone-refractory prostate cancer cells.
Ac-LRLKGQMIYLRRRRRRRR-OH [Peptide B-8R] was tested, and the “effect on LNCaP cell growth / cytotoxicity (in words)” value was “stopped the growth”.
Ac-PLHDATRDLVRRRRRRRR-OH [Peptide C-8R] was tested, and the “effect on LNCaP cell growth / cytotoxicity (in words)” value was “no effect”.
Ac-TFCKAFPFHII [Peptide A] was tested, and the “effect on LNCaP cell growth / cytotoxicity (in words)” value was “no effect”.

These molecules were tested on LNCaP cell culture (assay: not given). Conditions: not given.
Assay type: cell-based
Text: In one non-limiting example, Peptide A-8R [SEQ ID NO: 1] can be truncated to a smaller peptide that retains the same type of biological activity profile. In certain embodiments, truncating Peptide A-8R [SEQ ID NO: 1] results in greater potency upon conversion of some of the pharmacophore functionalities to peptidomimetic groups that can, in turn, enhance key interactions by lowering the net binding energy. In one experiment, Peptide A-8R [SEQ ID NO: 1] was divided into two parts, using the central proline residue as the division point. […] A minimum number of amino acids desired for cytotoxicity was then identified. […] The following Peptide A truncated and derivative probes were synthesized and evaluated for their effect on cytotoxicity after 3- and 6-day exposures:
The following table lists cell culture data for truncated Peptide A peptides. The amino acid sequences and IC50 values in μM concentrations depict cytotoxicity after 3- and 6-day exposures (“NotA” means not active). “8R” [SEQ ID NO: 6] signifies that 8 arginines are present on the carboxy terminus to mediate membrane translocation. The data has shown that the 8R terminus [SEQ ID NO: 6] can be either as the free carboxy (—OH) or amide (—NH2) with no alteration of permeation or observed activity.
The table below lists LNCaP cell culture data for various Peptide A derivatives, displaying the observed IC50 values in μM concentrations after 3- and 6-day exposures.
With FCKAF [FF5-OH, FCKAF] the Cytotoxicity was “No”.
With FCKAFRRRRRRRR-NH2 [Peptide FF5-8R] the Cytotoxicity was “Yes”.
FCKAF [FF5] was tested, and the “cytotoxicity / activity in cells (in words)” value (shortened to “cytotoxicity / activity”) was “inactive”.
TFCKAFPRRRRRRRR-NH2 [Peptide TP7-8R] was tested, and the Cytotoxicity was “Yes”.
For KAFPRRRRRRRR [Peptide KP4-8R], the Cytotoxicity was “No”.
FMKAFRRRRRRRR-NH2 [Peptide FF5-C2M-8R] was tested, and the Cytotoxicity was “Yes” and the “cytotoxicity / activity” value was “significant activity was retained”.
For FCKAARRRRRRRR-NH2 [FA5-8R], the Cytotoxicity was “Yes”.
For `C[C@@H](O)[C@H](N)C(=O)N[C@@H](Cc1ccccc1)C(=O)N[C@@H](CS)C(=O)O` [TC3, TFC] (H-Thr-Phe-Cys-OH), the “cytotoxicity / activity” value was “diminished but yet still significant cytotoxicity”.
For FCAAFRRRRRRRR-NH2 [FF5-K3M-8R], the Cytotoxicity was “Yes”.
ACKAFRRRRRRRR-NH2 [AF5-8R] was tested, and the Cytotoxicity was “Yes”.
With FCKAF-NH2 [FF5-NH2, FCKAF] the Cytotoxicity was “No”.
With PFHIIRRRRRRRR-NH2 [Peptide PI5-8R] the Cytotoxicity was “No”.
CKAFRRRRRRRR-NH2 [Peptide CF4-8R] was tested, and the Cytotoxicity was “Yes” and the “cytotoxicity / activity” value was “lower-level activities retained”.
For TFCKAFP [TP7, TFCKAFP], the “cytotoxicity / activity” value was “retained cytotoxicity”.
For FCKARRRRRRRR [Peptide FA4-8R], the Cytotoxicity was “Yes” and the “cytotoxicity / activity” value was “lower-level activities retained”.
For PFHII [PI5, PFHII], the “cytotoxicity / activity” value was “no activity”.
With KAFPFHRRRRRRRR [Peptide KH6-8R] the Cytotoxicity was “No”.
For FAKAFRRRRRRRR-NH2 [Peptide FF5-C2A-8R], the Cytotoxicity was “Yes” and the “cytotoxicity / activity” value was “dramatically reduced activity”.
For FCKAFPRRRRRRRR-NH2 [Peptide FP6-8R], the Cytotoxicity was “Yes”.
With `C[C@H](NC(=O)[C@H](CCCCN)NC(=O)[C@H](CS)NC(=O)[C@@H](N)Cc1ccccc1)C(=O)O` [FA4, FCKA] (H-FCKA-OH) the “cytotoxicity / activity” value was “diminished but yet still significant cytotoxicity”.
For TFCKAFRRRRRRRR-NH2 [Peptide TF6-8R], the Cytotoxicity was “Yes” and the “cytotoxicity / activity” value was “quite comparable”.
In the case of TFCRRRRRRRR [Peptide TC3-8R], the Cytotoxicity was “Yes” and the “cytotoxicity / activity” value was “lower-level activities retained”.

These molecules were tested on sGCα1 (assay: Western blotting of sGCα1 expression in VCaP cells). Conditions: 1 nM R1881.
Assay type: cell-based
Protocol: FIG. 11A: VCaP cells were treated with or without 1 nM R1881 and Western blotting was used to measure expression of sGCα1. β-actin was used as a loading control.
For `C[C@]1(O)CC[C@H]2[C@@H]3CCC4=CC(=O)CCC4=C3C=C[C@@]21C` [Peptide R1881, R1881], the sGCα1 protein expression was “significantly induced”.

These molecules were tested on LNCaP cells (assay: LNCaP cell viability with etoposide, MTT assay). Conditions: 10 μM etoposide, two days.
Assay type: cell-based
Protocol: FIG. 7B: Over-expression of sGCα1 protects prostate cancer cells from the lethal effects of etoposide. LNCaP cells were infected with control empty adenovirus (−sGCα1; 20 MOI) or sGCα1-expressing adenovirus (+sGCα1; 2 or 20 MOI) and treated with 10 μM etoposide. After two days of incubation, cell number was quantified by MTT assay. Bar graphs represent averages of three independent experiments plus standard deviations. All activities are relative to the first condition, and this activity was set to 100%.
LNCaP cells were infected with an sGCα1-expressing adenovirus and treated with etoposide, an inducer of apoptosis. […] This finding, together, with the PCR array data showing that sGCα1 can regulate Survivin expression, is consistent with results showing that Survivin desensitizes prostate cancer cells to etoposide.
With `COc1cc([C@@H]2c3cc4c(cc3[C@@H](O[C@@H]3O[C@@H]5CO[C@@H](C)O[C@H]5[C@H](O)[C@H]3O)[C@H]3COC(=O)[C@H]23)OCO4)cc(OC)c1O` [Etoposide] the “viability of LNCaP cells” value was “significantly reduced”.

The molecules below were run on p53 transcriptional activity (assay: p53-Luc reporter assay, sGCα1-mediated repression of p53 transcriptional activity in LNCaP cells). Conditions: 100 nM of drug.
Assay type: cell-based
Text: FIGS. 1A-1F: Over-expression of sGCα1 inhibits p53 transcriptional activity. p53 activity was quantified by measuring luciferase activity. Bar graphs represent the average of three independent experiments plus standard deviation. All cells received the same amount of transfected expression plasmid and that pCH110 was used to control transfection efficiency.
FIGS. 2A-2F: The sGCα1-mediated repression of p53 transcriptional activity is independent of mediators of NO signaling and guanylyl cyclase activity. Androgen-dependent LNCaP cells were transfected with 0.5 μg pCH110, 0.1 μg p53-Luc reporter plasmid, and subjected to different treatments:
FIG. 2A: Cells were transfected with 0.5 μg pCH110, 0.1 μg p53-Luc reporter plasmid, and subjected to […] ODQ.
FIG. 2C: Cells were treated with different concentrations of C-PTIO.
FIG. 2D: Cells were treated with different concentrations of SNP.
FIG. 2E: Cells were treated with different concentrations of 8-Br-cGMP.
(§1) To determine whether nitric oxide (NO) signaling is involved in sGCα1-mediated repression of p53 transcriptional activity, NO interfering drugs were used.
Supporting this finding, the NO donor SNP had no effect (FIG. 2D).
For `CC1(C)N([O])C(c2ccc(C(=O)O)cc2)=[N+]([O-])C1(C)C` [C-PTIO], the p53 activity was “inhibit p53 activity”.

Same assay, conditions: 5 or 50 mM ODQ
In the case of `O=c1onc2cnc3ccccc3n12` [ODQ], the “effect on sGCα1-mediated repression of p53” value was “no effect”.

Same assay, conditions: different concentrations
In the case of `Nc1nc2c(nc(Br)n2[C@@H]2O[C@@H]3COP(=O)(O)O[C@H]3[C@H]2O)c(=O)[nH]1` [Peptide 8-Br-cGMP, 8-Br-cGMP], the p53 transcriptional activity was “weakly enhanced”.

What follows are molecules tested on LNCaP cells (assay: Relief of Peptide A-8R cytotoxicity by pan-caspase inhibitor in LNCaP cells). Conditions: 40 mM Z-VAD-FMK, 4 hrs.
Assay type: cell-based
Protocol: FIG. 18B: LNCaP cells were grown for 4 hrs in the presence of increasing concentration of Peptide A-8R [SEQ ID NO: 1] with or without […] Z-VAD-FMK and then cell density was measured.
To determine if the cytotoxicity of Peptide A-8R [SEQ ID NO: 1] is through apoptosis, LNCaP cells were monitored for Caspase 3/7 activity. […] Thus, Peptide A-8R [SEQ ID NO: 1] was able to induce Caspase 3/7 activity much faster than the well-studied apoptosis-inducing drug Etoposide. To confirm that the Peptide was killing cells via apoptosis, the inventors used the pan-caspase inhibitor Z-VAD-FMK.
In the case of `COC(=O)C[C@H](NC(=O)[C@H](C)NC(=O)[C@@H](NC(=O)OCc1ccccc1)C(C)C)C(=O)CF` [Z-VAD-FMK] (Cbz-Val-Ala-Asp(OMe)-CH2F), the “effect on Vehicle-treated cells” value was “no significant effect”.

Same assay, conditions: pretreatment with 40 mM Z-VAD-FMK, peptide up to 50 μM, 4 hrs
With `COC(=O)C[C@H](NC(=O)[C@H](C)NC(=O)[C@@H](NC(=O)OCc1ccccc1)C(C)C)C(=O)CF` [Z-VAD-FMK] (Cbz-Val-Ala-Asp(OMe)-CH2F) the “relief of the Peptide A-8R cytotoxic effect” value was “complete relief”.

Each molecule was assayed against sGC (Homo sapiens, UniProt Q02153) (assay: sGC-catalyzed cGMP synthesis (data not shown)). Conditions: the two ODQ concentrations.
Chain of sGC (Q02108 whole entry partner): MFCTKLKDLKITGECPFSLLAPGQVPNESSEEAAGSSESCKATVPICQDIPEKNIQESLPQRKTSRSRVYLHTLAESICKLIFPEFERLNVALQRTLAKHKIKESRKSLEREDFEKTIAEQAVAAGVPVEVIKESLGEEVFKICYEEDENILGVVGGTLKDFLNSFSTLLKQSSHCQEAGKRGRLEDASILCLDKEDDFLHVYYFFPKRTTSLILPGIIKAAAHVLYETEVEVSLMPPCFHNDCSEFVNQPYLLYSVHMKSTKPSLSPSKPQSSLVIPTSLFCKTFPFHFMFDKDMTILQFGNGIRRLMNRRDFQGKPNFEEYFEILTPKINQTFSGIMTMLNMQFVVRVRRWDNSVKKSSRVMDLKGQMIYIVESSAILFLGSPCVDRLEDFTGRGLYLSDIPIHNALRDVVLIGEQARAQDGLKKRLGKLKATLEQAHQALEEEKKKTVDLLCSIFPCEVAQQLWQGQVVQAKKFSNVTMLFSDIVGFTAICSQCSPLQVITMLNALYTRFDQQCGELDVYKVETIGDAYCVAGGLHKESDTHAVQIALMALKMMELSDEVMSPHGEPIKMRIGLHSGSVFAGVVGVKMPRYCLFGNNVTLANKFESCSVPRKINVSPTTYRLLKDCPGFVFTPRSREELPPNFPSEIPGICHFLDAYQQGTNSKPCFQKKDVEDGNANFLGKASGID
Chain of sGC (Q02153 whole entry): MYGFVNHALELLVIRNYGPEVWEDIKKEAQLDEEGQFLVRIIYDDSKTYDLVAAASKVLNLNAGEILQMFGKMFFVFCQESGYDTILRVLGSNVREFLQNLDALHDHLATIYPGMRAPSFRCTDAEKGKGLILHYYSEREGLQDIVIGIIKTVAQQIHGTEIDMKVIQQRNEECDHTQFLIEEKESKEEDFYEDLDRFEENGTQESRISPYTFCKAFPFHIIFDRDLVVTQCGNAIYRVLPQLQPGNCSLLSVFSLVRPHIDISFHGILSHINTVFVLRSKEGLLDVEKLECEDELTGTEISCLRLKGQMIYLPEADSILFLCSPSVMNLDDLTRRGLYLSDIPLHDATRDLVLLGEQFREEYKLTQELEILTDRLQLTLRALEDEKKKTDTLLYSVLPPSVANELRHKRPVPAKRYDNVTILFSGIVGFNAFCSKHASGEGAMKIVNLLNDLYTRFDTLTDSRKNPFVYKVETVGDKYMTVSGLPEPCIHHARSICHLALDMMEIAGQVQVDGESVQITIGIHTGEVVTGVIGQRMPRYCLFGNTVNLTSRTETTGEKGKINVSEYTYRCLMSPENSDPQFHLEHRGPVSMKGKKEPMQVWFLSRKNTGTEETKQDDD
Assay type: biochemical
Text: as §1
With `O=c1onc2cnc3ccccc3n12` [ODQ] the “sGC-catalyzed cGMP synthesis” value was “strongly inhibited”.
